Source: patent US11266622B2, “Method of treatment” (Vanda Pharmaceuticals Inc., priority 2014, dated 2022)

What was measured:
Mel1b (MT2R) = biological target: T1, Mel1b (MT2R) (Homo sapiens, UniProt P49286); test: Affinity (Ki) for melatonin receptor MT2R; assay type: binding
T1 sequence (P49286 1-362): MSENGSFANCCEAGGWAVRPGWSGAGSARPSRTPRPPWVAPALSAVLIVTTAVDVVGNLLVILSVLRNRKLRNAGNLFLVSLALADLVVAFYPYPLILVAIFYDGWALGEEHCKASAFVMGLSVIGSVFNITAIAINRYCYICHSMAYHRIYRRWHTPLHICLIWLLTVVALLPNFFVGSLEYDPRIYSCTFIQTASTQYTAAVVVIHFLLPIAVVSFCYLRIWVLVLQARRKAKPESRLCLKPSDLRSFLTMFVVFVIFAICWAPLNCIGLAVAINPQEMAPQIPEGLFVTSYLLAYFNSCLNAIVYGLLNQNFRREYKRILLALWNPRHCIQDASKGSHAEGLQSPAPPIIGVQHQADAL

[1] = Solubility of tasimelteon in solvents and water; assay type: physicochemical
Mel1a (MT1R) = Mel1a (MT1R) (Homo sapiens, UniProt P48039); test: Affinity (Ki) for melatonin receptor MT1R; assay type: binding
Sequence of Mel1a (MT1R) (P48039 whole entry): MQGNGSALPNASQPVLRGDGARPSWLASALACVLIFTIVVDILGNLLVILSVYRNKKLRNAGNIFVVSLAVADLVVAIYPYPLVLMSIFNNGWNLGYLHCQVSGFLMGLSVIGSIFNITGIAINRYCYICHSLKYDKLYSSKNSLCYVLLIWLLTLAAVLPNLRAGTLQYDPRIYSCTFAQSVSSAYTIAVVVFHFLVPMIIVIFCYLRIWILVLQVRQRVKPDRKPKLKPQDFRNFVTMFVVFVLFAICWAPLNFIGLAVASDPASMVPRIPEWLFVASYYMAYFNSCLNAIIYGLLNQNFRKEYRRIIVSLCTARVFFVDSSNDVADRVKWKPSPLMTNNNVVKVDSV

sleep parameters = settings: cited from earlier work
[2] = Metabolite formation following oral administration of tasimelteon; assay type: in vivo; settings: humans

Ki (Mel1b (MT2R))	greater affinity for MT2R relative to MT1R (Mel1b (MT2R); MT2R relative to MT1R)	solubility in organic solvents ([1]; 95% ethanol, methanol, acetonitrile, ethyl acetate, isopropanol, polyethylene glycols (PEG-300 and PEG-400))	effect of pH on aqueous solubility ([1]; aqueous)	native pH of a saturated solution in water ([1]; saturated solution in water)	solubility in water ([1]; water)	Ki (Mel1a (MT1R))	formation as metabolite [2]	Structure (SMILES)	effect on sleep parameters (sleep parameters; prior clinical studies, simulated desynchronization of the circadian clock)	tolerability profile (sleep parameters; studied in hundreds of individuals)
0.1 to 0.2 nM	2-4 times	very soluble or freely soluble	practically unaffected by pH	8.5	only slightly soluble	0.3 to 0.4 nM		CCC(=O)NC[C@@H]1C[C@H]1c1cccc2c1CCO2 (relative stereo) [Tasimelteon, trans-N-[[2-(2,3-dihydrobenzofuran-4-yl)cycloprop-1yl]methyl]propanamide]	shown to improve sleep parameters	good tolerability profile
							formed in humans	CCC(=O)NC[C@@H]1C[C@H]1c1cccc(O)c1CC(=O)O [M9]		
							formed in humans	CCC(=O)NC[C@@H]1C[C@H]1c1cccc(O)c1CCO [M11]		
